# Assay results reported in patent publication US6503490B2, “Deodorant products” (Unilever Home & Personal Care USA, division of Conopco, Inc., priority 2000, dated 2003).
# System: Staphylococcus epidermidis
# Assay: Anti-microbial performance test: growth inhibition of axillary isolate of S. epidermidis in semi-synthetic medium (OD 600 nm)
# Assay type: cell-based
# Conditions: concentration of 3×10^−6 mol.dm^−3 or less
# Method: An axillary isolate of Staphylococcus epidermidis was grown overnight in 100 ml of tryptone soy broth (TSB, Oxoid Ltd). 10 ml of this culture was taken and subjected to centrifugation. The separated cells were re-suspended in 10 ml of phosphate buffered saline and the centrifugation procedure repeated. The washed cells were re-suspended in 10 ml of phosphate buffered saline to give the inoculum. 100 μl of the inoculum was added to 100 ml of semi-synthetic medium (SSM) containing (NH4)2SO4 (0.066 g),MgSO4.7H2O (0.012 g), KCl (0.1 g), KH2PO4 (0.27 g), Na2HPO4 (1.43 g), thiamin (0.1 mg), biotin (0.05 mg), Peptone P (0.05 g), and glucose (2.0 mmole) which had been previously sterilised by autoclaving at 121° C. for 20 minutes. The pH of the SSM was adjusted to 6.7 with HCl after sterilisation, prior to addition of the inoculum. This control medium was utilised in all of the in vitro inhibition studies. The chelator-containing test media were prepared in a similar manner, the chelator being introduced at a concentration of 3×10^−6 mol.dm^−3 before the pH adjustment with HCl.
# 100 μl of the S. epidermidis inoculum was introduced into the control medium and into test media containing the chelators indicated in Table 2. The cultures were inoculated at 37° C. (with agitation at 200 rpm) for 16 hours, and the optical density of the cultures measured at 600 nm to determine the extent of bacterial growth. By comparison of the optical density of the culture in the presence of chelating agent, to that of the control, the percentage inhibition of growth was established. (Optical density measurements were made on 1 in 4 dilutions of the cultures with 0.9% (w/v) saline, using 1 cm path length cuvettes, on a Pharmacia Biotech Ultrospec 200 Spectrophotometer.)
row,SMILES,Significant inhibition of growth of S. epidermidis (at least 30%)
1,"O=C(O)CN(CC(=O)O)[C@@H]1CCCC[C@H]1N(CC(=O)O)CC(=O)O (relative stereo) [CDTA, trans-1,2-diaminocyclohexane-N,N,N′,N′-tetraacetic acid]",are not
2,"O=C(O)CN(CCN(CC(=O)O)CC(=O)O)CCN(CC(=O)O)CC(=O)O [DTPA, diethylenetriaminepentaacetic acid]",capable of achieving significant inhibition
3,"O=C(O)CN(CCN(CC(=O)O)CC(=O)O)CC(=O)O [EDTA, ethylenediaminetetraacetic acid]",are not
4,"O=C(O)CN(CCN(CCN(CC(=O)O)CC(=O)O)CC(=O)O)CCN(CC(=O)O)CC(=O)O [TTHA, triethylenetetraaminehexaacetic acid]",capable of achieving significant inhibition

# Target: T1, human diferric transferrin (Homo sapiens, UniProt P02787)
# T1 construct: purchased Sigma Chemicals
# Assay: Transferrin dissociation promotion test (FerroZine, absorption at 562 nm)
# Assay type: biochemical
# Conditions: after 24 hours, 10 mmol.l^−1 test material, 37° C., pH 6.5, control 0.111
# Method: 2.7 g.l^−1 human diferric transferrin (ex Sigma Chemicals) is incubated at 37° C. in 50 mM HEPES (N-[2-hydroxyethyl]piperazine-N-[2-ethanesulfonic acid]) buffer adjusted to pH 6.5 with sodium hydroxide, together with 0.115 g.l^−1 FerroZine (ex Sigma Chemicals; 3-(2-pyridyl)-5,6-bis(4-phenylsulfonic acid)-1,2,4-triazine, monosodium salt) and 10 mmol.l^−1 of the test material, if water soluble, or 2.5 g.l^−1 of the test material, added as a finely ground powder, if water insoluble.
# After 24 hours, the extent of transferrin dissociation is estimated by eye or spectrophotometrically. Transferrin dissociation promoters lead a purple colouration; in particular, they lead to an absorption at 562 nm of 0.15 or greater. This purple colouration is the result of the production of iron(II) tri(FerroZine) complex. The molar concentration of this complex is equal to the molar concentration of iron dissociated from the transferrin.
# 2.7 g.l^−1 human diferric transferrin (ex Sigma Chemicals) was incubated at 37° C. in 50 mM HEPES (N-[2-hydroxyethyl]piperazine-N′-[2-ethanesulfonic acid]) buffer adjusted to pH 6.5 with sodium hydroxide, together with 0.115 g.l^−1 FerroZine (ex Sigma Chemicals; 3-(2-pyridyl)-5,6-bis(4-phenylsulfonic acid)-1,2,4-triazine, monosodium salt) and 10 mmol.l^−1 of the test material.
# After 24 hours, the extent of transferrin dissociation was estimated spectrophotometrically by measuring absorption at 562 nm (vide supra). The data (see Table 5) illustrate the enhanced transferrin dissociation occurring in the presence of the indicated test materials.
# T1 sequence (P02787 20-698): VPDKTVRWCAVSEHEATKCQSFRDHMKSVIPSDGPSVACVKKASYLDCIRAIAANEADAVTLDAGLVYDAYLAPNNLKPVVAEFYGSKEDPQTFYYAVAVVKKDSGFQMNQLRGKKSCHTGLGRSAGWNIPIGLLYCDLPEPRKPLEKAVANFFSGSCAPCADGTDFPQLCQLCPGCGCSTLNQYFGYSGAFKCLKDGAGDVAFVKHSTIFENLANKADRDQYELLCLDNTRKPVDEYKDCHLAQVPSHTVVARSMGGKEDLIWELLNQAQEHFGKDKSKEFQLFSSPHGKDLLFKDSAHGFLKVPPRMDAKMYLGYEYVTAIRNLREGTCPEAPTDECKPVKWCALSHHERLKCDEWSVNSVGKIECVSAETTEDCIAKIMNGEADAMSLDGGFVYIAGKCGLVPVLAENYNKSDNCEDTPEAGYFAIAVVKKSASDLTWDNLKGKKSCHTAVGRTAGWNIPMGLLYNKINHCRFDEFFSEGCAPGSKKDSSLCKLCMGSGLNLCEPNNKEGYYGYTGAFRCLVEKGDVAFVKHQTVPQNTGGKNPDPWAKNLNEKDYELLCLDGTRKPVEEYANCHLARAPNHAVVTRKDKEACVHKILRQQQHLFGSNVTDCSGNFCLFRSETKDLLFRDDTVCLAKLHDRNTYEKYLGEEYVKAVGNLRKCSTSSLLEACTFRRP
row,Absorption,SMILES
1,0.425,"O=S(=O)(O)c1cc(O)c(O)c(S(=O)(=O)O)c1 [Iron, 4,5-dihydroxy-1,3-benzenedisulfonic acid]"
2,0.305,O=C(O)c1ccccc1O [Salicylic acid]

row,SMILES,Absorption
1,O=C(O)c1ccc(O)c(O)c1 [Protocatechuic acid],0.391
